Earlier results, collected in patent publication US9687466B2, “Use of dianhydrogalactitol and analogs and derivatives thereof to treat glioblastoma multiforme” (DELMAR PHARMACEUTICALS, INC., priority 0212, dated 2017).

Conditions: cited from earlier work

O[C@H]([C@H](O)[C@@H](O)CBr)[C@H](O)CBr [dibromodulcitol]
absorption by the oral route: rapid and fairly complete
